The values that follow come from publication PMC2839369 (Chimia, 2009).

Structures are written as SMILES.

This test deals with thymidine kinase from Thermotoga maritima (TmTK) (Thermotoga maritima, UniProt Q9WYN2). The test is described as follows: crystal structures and activity. The test is classed as binding. Particulars: phosphoryl donor site.
thymidine kinase from Thermotoga maritima (TmTK), sequence (Q9WYN2 whole entry): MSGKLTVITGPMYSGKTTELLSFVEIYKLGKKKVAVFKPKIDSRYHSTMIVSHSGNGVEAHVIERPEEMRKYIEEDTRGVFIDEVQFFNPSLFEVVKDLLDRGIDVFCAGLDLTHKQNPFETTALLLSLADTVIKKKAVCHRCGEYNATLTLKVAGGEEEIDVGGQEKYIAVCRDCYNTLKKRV

In the case of `Nc1ncnc2c1ncn2[C@@H]1O[C@H](COP(=O)(O)OP(=O)(O)OP(=O)(O)O)[C@@H](O)[C@H]1O` [ATP], the “crystal structures and activity (summary of authors' earlier work)” value is on record as “large conformational change in the native homotetramer associated with ATP binding”.
